According to patent US20110065674A1, “METHODS AND COMPOSITIONS FOR IMPROVING COGNITIVE FUNCTION” (priority 2008, published 2011):
Entries after “also recorded” stand apart in the source; their conditions may differ.

Assays:
[1] = system: Age-Impaired (AI) Long-Evans rats; test: 24 hour-delay Morris Water Maze memory retention trial in aged-impaired rats; assay type: in vivo, rat; settings: for spatial memory retention (time in target quadrant) in 24-hr retention trial: donepezil alone 0.5, 1.0 and 2.0 mg/kg i.p. before training
Protocol: Age-Impaired (AI) Long-Evans rats (as characterized above) were tested for their memory of new spatial information in the MWM, under different drug/control treatment conditions: vehicle control, donezepil only, VPA only, and combination of VPA and donezepil. Donezepil was administered at a range of doses (0.5, 1.0 or 2.0 mg/kg) 30 minutes to 1 hour prior to training trials. VPA was administered chronically and subcutaneously at a rate of 100 mg/kg/day via implanted osmotic minipump.
AI rats were given six training trials per training day with a 60-sec inter-trial interval between each training trial for two consecutive days. On each training trial, the rat was released in the maze from one of four equally spaced starting positions around the perimeter of the pool. […] 30 minutes to 1 hour prior to all the training trials on each training day, AI rats were pretreated with one of four drug conditions: 1) vehicle control (0.9% saline solution); 2) 0.5 mg/kg donpepzil; and 3) 1.0 mg/kg donpepzil; and 4) 2.0 mg/kg donpepzil through intraperitoneal (i.p.) injection.
The same AI rats were used for the entire set of experiments so that each treatment condition was tested on each of the rats. Therefore, to counterbalance any potential bias, both the location of the escape platform and the spatial cues surrounding the water maze were different in the four treatment conditions. In other words, using one set of locations and spatial cues, two rats were treated with saline control solution, two with 0.5 mg/kg donpepzil, two with 1.0 mg/kg donpepzil and two with 2.0 mg/kg donpepzil. These groups were cycled through 3 more sets of locations and spatial cues, with each group of two receiving a different treatment each time, so that at the end, each treatment condition was tested in eight rats.
After the completion of the twelve training trials (over the two days), the rats were returned to their home cages in the colony room for a 24-hr waiting period, in preparation for the subsequent memory retention test. After the waiting period, the rat was given one testing trial (the “retention trial”), which was the same MWM task as the training trials, but with the escape platform removed.
For the retention trial, the MWM circular pool was divided into 4 quadrants. The particular quadrant where the escape platform was placed in the training trials is referred to as the “target quadrant”. The particular region where the platform was located in the training trials is referred to as the “target annulus”. In the retention trial, the time the AI rats spent swimming in the target quadrant was measured and further plotted as a percentage of total swimming time. The time the AI rats spend in the target annulus was also measured. […]

muscarinic receptor = test: Muscarinic receptor-stimulated GTP-Eu binding assay on hippocampal membranes of treated rats; assay type: biochemical, rat; settings: chronic low dose valproate, memory impaired aged rats, vs vehicle treated; FIG. 1
Protocol: Membrane preparation: Rats were decapitated and the hippocampus was dissected on ice then frozen at −80° C. All the tissue was stored in −80° C. and processed for GTP-Eu binding. For the GTP-Eu binding assay, membranes were prepared from frozen tissue by gentle homogenization with a Dounce homogenizer in five volumes of ice-cold 50 mM Tris buffer, pH 7.4, containing 0.2 mM EGTA and protease inhibitors. After centrifuging at 40,000×g at 4° C. for 10 min, the pellets were resuspended in 30 ml of ice-cold Tris buffer. The steps described above were repeated twice, and then the final pellets were resuspended in assay buffer (50 mM Tris, 0.2 mM EGTA, 5 mM MgCl2, and 100 mM NaCl, pH 7.4) (Zhang et al 2007).
Muscarinic receptor-stimulated GTP-Eu binding assay. GTP-Eu binding was assessed using time-resolved fluorescence (Wallac 1420, Perkin-Elmer). The membranes and all the reagents were diluted with assay buffer. Samples were added into a 96-well filter plate in a counter-balanced manner based upon age and behavioral performance, although the experimenter was blind to the identification of the groups at the time of the assay. […] The integration of GTP-Eu into the membrane was measured by excitation of the samples at 340 nm and reading the emission at 615 nm using time-resolved fluorescence (Zhang et al 2007, Nicolle et al 1999). […]

[2] = system: memory impaired aged rats; test: 6 hour-delay water maze spatial memory task in aged-impaired rats; assay type: in vivo, rat; settings: AI rats, FIG. 2
Protocol: (§1) AI Rats were treated with sodium valproate (“VPA”) chronically and subcutaneously at a rate of 100 mg/kg/day via implanted osmotic minipump, and then trained and tested in a new water maze environment. The water maze used here was housed in a different building and was surrounded by black curtains with a novel set of white patterns. The training protocol used was based on a modified water maze task known to be highly hippocampal-dependent (de Hoz et al., 2005; Steele & Morris, 1999). Unlike the traditional water maze protocol (such as that used in the background assessment, described above) wherein the escape platform location remained constant throughout training, the escape platform location in this spatial memory version of the task varied from day to day.
The test was comprised of a training phase followed by a memory retention test. Each day, during the training phase, rats were given six trials to locate the submerged escape platform. On each trial, a rat was released in the maze from one of four equally spaced starting positions around the perimeter of the pool. The starting position varied from trial to trial. […] The rat was then removed from the platform and placed in a holding cage for another 40 s before the next trial. The length of the path the rat took while swimming in the maze was measured in each trial. […]

[3] = Blood total VPA level under chronic subcutaneous administration; assay type: in vivo, rat; settings: chronic subcutaneous administration of 100 mg/kg/day
Protocol: as §1
After the 6-hr waiting period, the rats were returned to the water maze for a test of spatial memory with the submerged platform located in the same position as in the training trials. Each rat was given 60 s to locate the platform. Rats were trained and tested in this manner for five consecutive days. Performances on the last three days were averaged for analysis. […] The chronic subcutaneous administration of 100 mg/kg/day VPA results in a blood total VPA level of 10 μg/ml plasma (10 μg/ml total VPA).

Row | SMILES | spatial memory retention (time in target quadrant) in 24-hr retention trial ([1]; FIG. 3) | spatial memory retention (time in target quadrant) in 24-hr retention trial ([1]; FIG. 3, listed as Donezepil) | muscarinic receptor-stimulated GTP-Eu binding in the hippocampus (percentage of young rat) (muscarinic receptor) | memory retention (forgetting, path length) after a 6-hr delay ([2]; VPA 100 mg/kg/day chronic s.c. minipump, vs saline or VPA 50 mg/kg/day) | performance (path length) at the end of the training phase ([2]; chronic s.c. minipump, Trials 1-6, compared with saline) | blood total VPA level [3] [μg/ml plasma] | spatial memory retention in 24-hr retention trial ([1]; VPA only, 100 mg/kg/day chronic s.c. minipump, FIG. 3, 100 mg/kg/day)
1 | COc1cc2c(cc1OC)C(=O)C(CC1CCN(Cc3ccccc3)CC1)C2 (stereo not shown) [donezepil, donepezil] | did not significantly improve | no effect | – | – | – | – | –
2 | CCCC(CCC)C(=O)[O-].[Na+] [VPA, sodium valproate] | – | – | effectively restore post-synaptic muscarinic coupling; also recorded: increases muscarinic receptor-GTP-Eu binding | showed less forgetting; also recorded: improved the performance | performed at a comparable level | 10 | no improvement seen
